This passage reports inhibition results from patent US8703796B2, “3H-imidazo [4, 5-B] pyridine-6-carboxamides as anti-inflammatory agents” (Boehringer Ingelheim International GmbH, priority 2008, dated 2014).

This assay deals with T1, recombinant human mPGES-1 (Homo sapiens, UniProt O14684).
T1 construct: made in house; host or cells: Rosetta E. coli (microsomal/membrane fraction)
T1 sequence (O14684 1-152): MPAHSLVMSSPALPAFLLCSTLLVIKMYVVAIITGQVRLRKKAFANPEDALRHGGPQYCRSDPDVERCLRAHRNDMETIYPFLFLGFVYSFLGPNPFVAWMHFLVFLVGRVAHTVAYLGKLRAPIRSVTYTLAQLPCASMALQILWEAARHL
In words: mPGES-1 inhibition, HTRF detection of PGE2. The assay is classed as biochemical. Put shortly:
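Microsomes from E. coli expressing recombinant human mPGES-1 in 0.1 M KPi pH 7.4 with 2.5 mM GSH were preincubated with inhibitor 25 min at room temperature. PGH2 was then added, and the reaction was stopped after 1 min with acidified FeCl2. PGE2 was quantified by HTRF (665/620 nm ratio) against a synthetic PGE2 standard curve.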
(In TR-FRET formats the signal depends on donor and acceptor labels being close together.)

Take `O=C(Nc1ccc(Br)cc1)c1cc2nc(Nc3c(Cl)cncc3Cl)[nH]c2nc1OCC(F)(F)F` [Example 858, 2-(3,5-Dichloro-pyridin-4-ylamino)-5-(2,2,2-trifluoro-ethoxy)-N-(4-bromo-phenyl)-3H-imidazo[4,5-b]pyridine-6-carboxamide]: the inhibition at 10 µM was 100%.

Broadly, the inhibition is the drop in the measured response relative to a control, in per cent.
